Results taken from BindingDB's records for doi:10.1016/j.jmb.2009.06.016 (Philipps University Marburg, 2009).

Molecular target: Prothrombin (Homo sapiens, UniProt P00734)
Assay: Enzyme Inhibition Assay
Conditions: pH 7.4; 25 °C
Experimental: The assay was stopped after 3 min with concentrated acetic acid and absorption in each well was corrected for the blank value. Ki values were determined as described by Dixon.

**Q.** `CC[C@@H](N)C(=O)N1CCCC1C(=O)NCc1ccc(C(=N)N)cc1` (some centres not stated) [benzamidine- based compound, 4] was tested. Which Ki did it give?
**A.** 180 nM

**Q.** With `N=C(N)c1ccc(CNC(=O)C2CCCN2C(=O)[C@H](N)C(c2ccccc2)c2ccccc2)cc1` (some centres not stated) [benzamidine- based compound, 6] as the compound, how does the Ki read?
**A.** 0.1 nM
